Reference: ChEMBL document CHEMBL1139645, “Action of a novel pyrrolo[1,2-c][1.3]benzodiazepine on the viability of Jurkat and neuronal/glial cells” (2005)

Experiments:
[1] = test system: Jurkat; experiment: Effect of compound on cell viability in human leukemic Jurkat cells measured as percent reduction of MTT at 570 nm O.D.; Control value 0.47 %; type: functional
[2] = Effect of compound on cell viability in non-transformed neuronal/glial cells measured as percent reduction of MTT at […] O.D.; Control value 0.56 %; type: functional, Rattus norvegicus
[3] = Effect of compound on cell viability in non-transformed neuronal/glial cells measured as percent reduction of MTT at 570 nm O.D. and exposure to 100 uM NMDA; Control value 0.56 %; type: functional, Rattus norvegicus
[4] = Effect of compound on cell viability in non-transformed neuronal/glial cells measured as percent reduction of MTT at 570 nm O.D. at 100 uM; Control value 0.56 %; type: functional, Rattus norvegicus

Compound | MTT reduction [1] [O.D] | MTT reduction [2] [O.D] | MTT reduction [3] [O.D] | MTT reduction [4] [O.D]
SC1=Nc2ccccc2Cc2cccn21 | 0.22 | 0.58 | 0.17 | 
Oc1c2nccc-2c(S)nc2ccccc12 | 0.45 | 0.55 | 0.25 | 
Nc1ccccc1Cc1ccc[nH]1 | 0.34 | 0.38 | 0.22 | 
CN[C@H](CC(=O)O)C(=O)O [N-METHYL-D-ASPARTIC ACID (NMDA)] |  |  |  | 0.29
O=c1c2ccccc2nc(S)n2cccc12 | 0.41 | 0.62 | 0.28 | 
Nc1ccccc1C(=O)c1ccc[nH]1 | 0.39 | 0.65 | 0.3 | 
